# Reference: patent publication US5863889A, “ICAM-1/LFA-1 short-chain peptides and method of using same” (The University of Kansas, priority 1996, dated 1999)
# What was measured:
# Molt3 cells [1] = assay: Homotypic adhesion assay (MDHC-induced clumping of T-cells); format: cell-based, human; design: key to Homotypic Adhesion Amount: Any sample having a score of "+++" or "++++" is considered to have a significant ability to modulate T-cell binding interaction; Any sample having a score of "+++" or "++++" is considered to have a significant ability to modulate T-cell binding interaction; settings: 10 μM MDHC
# Experimental: As before, the T-cells were Molt3 cells prepared in RPMI 1640 growth medium according to Example 2. An approximate 7 ml aliquot of the growth medium was centrifuged (Jouan Model GT422 at 1400 rpm for 6.5 minutes), and the supernatant fluid was decanted. The pellet was resuspended in the supernatant fluid at titer of about 1×10^6 cells/ml, with the excess supernatant fluid being retained for future resuspension of the peptides.
# A 228 nmol quantity of the LJCRF-1 (Sequence ID No. 6) peptide described in Table 1 was diluted with the supernatant fluid to a 500 μl final volume, and filtered in microcentrifuge filter tubes (0.22 micron filter; 3500 rpm for 6 minutes). Serial dilution of the filtered peptide with supernatant fluid was conducted to yield five 125 μl peptide solutions to give respective concentrations of about 115 μM, 230 μM, 460 μM, 910 μM, and 1.82 mM. At each concentration, a 125 μl portion of the cell suspension was pipetted into each 125 μl portion of the peptide solutions to yield combined samples having a 250 μl volume. The 250 μl samples were seeded into individual wells in a 48-well tissue culture grade plate (from Costar of Cambridge, Md.) and incubated at 37° C. for 30 minutes. Each sample received 5 μl of 2,5-methyl dihydroxy cinnamate ("MDHC") for a 10 μM final concentration, and was subsequently incubated for about 10 hours at 37° C. MDHC induces intercellular clumping of human T-cells (Tibbetts, Butler, and Benedict, submitted) by activating the LFA/ICAM binding interaction between respective cells.
# Pictures were taken of five random fields per sample using an Olympus photomicroscope having a 0.8 mm field at 400×magnification, and a 3.2 mm field of view at 100×magnification. The amount of clumping observed was quantified by determining the mean number of clumps per field ± a standard error.
# FIGS. 5, 6, and 7 replicate photographs taken from exemplary peptide assays. FIG. 5 is a photograph of the control sample having no peptides and no MDHC added, from which essentially no clumping of cells is observed. […] Any sample having a score of "+++" or "++++" is considered to have a significant ability to modulate T-cell binding interaction. This is similar to results obtained by incubating similarly treated cells with antibody against either LFA or ICAM.
# The homotypic adhesion assay assesses the actual ability of a candidate peptide to modulate the ability of T-cells to adhere with one another.
# Molt3 cells [2] = assay: Cell metabolic assay (MTT); format: cell-based
# Experimental: After taking the photographs in Example 3 (and in some instances no photographs were taken), cell metabolic activity was assessed by an MTT assay. A 37.5 μl portion of MTT dye (purchased from SIGMA of St. Louis, Mo.), i.e., 3-[4,5-dimethyl thiazole-2yl]-2, 5- diphenyl tetrazolium bromide; thiazolyl blue) was added to each well, and incubated with the cells at 37° C. for about six hours. After incubation, a 250 μl quantity of a MTT solubilization solution (of a type that may be purchased from either Fischer Scientific of St. Louis, Mo. or BCD Labs of Lawrence, Kans.) was added to each well, and incubated with the cells at room temperature overnight. In the morning, the spectrophotometric absorption of each plate was determined at 570 nm in a microplate ELISA reader manufactured by Cambridge Technologies of Water-town, Mass., in order to assess cell viability as an indicator of potential peptide toxicity.
substance,measurement,setting,value
"SC-3-111: ICAM-1 based short-chain peptide, Sequence ID No. 10 (QTSVSPSKVI)",Homotypic Adhesion Effect,Molt3 cells [1]; peptide 230 μM,Block
same,Homotypic Adhesion Effect,Molt3 cells [1]; peptide 460 μM,Block
same,Homotypic Adhesion Amount,Molt3 cells [1]; peptide 910 μM,++++
same,Homotypic Adhesion Effect,Molt3 cells [1]; peptide 910 μM,Block
same,Homotypic Adhesion Amount,Molt3 cells [1]; peptide 1820 μM,+++
same,Homotypic Adhesion Effect,Molt3 cells [1]; peptide 1820 μM,Block
same,MTT % Viability,Molt3 cells [2]; peptide 230 μM,93%
same,MTT % Viability,Molt3 cells [2]; peptide 460 μM,95%
same,MTT % Viability,Molt3 cells [2]; peptide 910 μM,89%
same,MTT % Viability,Molt3 cells [2]; peptide 1820 μM,69%
